System: NRK-52E cells
Test: LC-MS/MS analysis of intracellular concentration
Assay type: in vitro ADME, rat
Conditions: for Intracellular accumulation in NRK-52E compared to RPTEC-TERT1 cells: 24 h; for Intracellular concentration after recovery compared to the 24 h time-point: 34 µM for 24 h, then 24 h in fresh medium; for Time course of intracellular concentration: within the 24 h treatment period (1-2 min, 1, 3, 6, 24 h), n = 3
Description: NRK-52E and RPTEC/TERT1 cells were seeded in 12-well plates (120,000 cells per well) and were allowed to grow for 48 h (NRK-52E) or 10 d (RPTEC/TERT1) until they reached 100% confluence. After cells achieved 100% confluence, the supernatant was aspirated, and the cells were washed twice with 1 x PBS. Cells were treated with polymyxins at a final concentration of 34 µM for 24 h. Samples were taken at five different treatment time points (1–2 min, 1, 3, 6, and 24 h). In addition, a recovery sample was taken 24 h after the end of the 24 h treatment period. To this end, the supernatant was aspirated after 24 h treatment and the cells were washed three times with 1 x PBS to remove polymyxin B or colistin residues. Fresh growth medium was added, and the cells were incubated for another 24 h. At the end of each experiment, the cells were washed 3 times with 1 x PBS and trypsinized by adding 200 µL of trypsin. Detached cells were washed with 1,000 µL 1 x PBS and the cells were transferred to LoBind™ tubes (Eppendorf). Cell count was determined using a Fuchs-Rosenthal counting chamber (Hartenstein). Cells were centrifuged for 5 min at 4°C at 10.000 rpm and the supernatant was aspirated. Cells were resuspended in 1,000 µL 1 x PBS and centrifuged for 5 min at 4°C at 10.000 rpm. After centrifugation, the supernatant was aspirated, and the cell pellet was resuspended in 250 µL ammonium acetate buffer (10 mM) and 250 µL of 30% methanol with 1% acetic acid containing polymyxin B respectively colistin as an internal standard. Cells were sonicated for 10 min and centrifuged for 5 min at 4°C at 14.000 rpm. The supernatant was transferred quantitatively into new LoBind™ tubes (Eppendorf) and dried in a centrifugal vacuum concentrator for 2–3 h. To measure compound plastic binding, the empty 12 well plates were washed with 1.5 ml acetonitrile on an orbital shaker for 2 h and supernatant was collected. For sample purification via solid phase extraction, SPE cartridges Strata-X 33 µm polymeric reversed phase, 10 mg/1 ml (Phenomenex) were used. In the conditioning step the cartridges were rinsed with 200 µL methanol (100%) and subsequently with 200 µL ddH2O to activate the sorbent bed. The dried samples were dissolved in 200 µL 1% acetic acid and transferred onto the SPE cartridge. The SPE cartridge were rinsed once with 200 µL 1% acetic acid. Impurities were removed by rinsing the cartridge once with 200 µL 10% methanol. A fresh LoBind™ tube (Eppendorf) was placed under the SPE cartridge to eluate the samples by rinsing twice with 200 µL 90% methanol containing 1% acetic acid. The samples were dried in a centrifugal vacuum concentrator for 2–3 h. All samples were stored at −20°C until LC-MS/MS analysis.
A triple quadrupole mass spectrometer equipped with a Turbo-Ion® Spray source (QTrap API 2000; AB Sciex Instruments) was used for analyses. The mass spectrometer was coupled to an Agilent 1100 HPLC system consisting of a binary pump system, a vacuum degasser and an autosampler (Agilent 1,100). Chromatographic separation was performed at 40°C with a column oven (Knauer) on a Synergi Hydro-RP column (2 mm × 150 mm, 4 μm, 80 Å; Phenomenex) coupled to a precolumn (SecurityGuard™ Cartridges, AQ C18 4 × 2.0 mm) using a binary step gradient at a flow rate of 0.2 ml/min with the following gradient: 0 min 100% A, 15 min 0% A, 20 min 0% A, 21 min 100% A, and 30 min 100% A. Mobile phase consisted of 3% acetonitrile containing 1% acetic acid and (solvent A) and 97% acetonitrile containing 1% acetic acid (solvent B). The injection volume was set to 10 µL and the total analysis time was 30 min. Following chromatographic separation, multiple ion monitoring was used to detect the triply charged, twice charged, and single charged ions of polymyxins (Table 1). […]

For Colistin, the “Intracellular accumulation in NRK-52E compared to RPTEC-TERT1 cells” value (34 µM) was “significantly lower in NRK-52E cells”, the “Intracellular concentration compared to polymyxin B” value (NRK-52E, 34 µM) was “lower intracellular concentrations” and the “Intracellular concentration after recovery compared to the 24 h time-point” value (NRK-52E) was “declined during the 24 h off-dose recovery period”. The “Time course of intracellular concentration” value (NRK-52E, 34 µM) was “continuous rise in the intracellular concentration”.

In the case of Polymyxin B, the “Intracellular accumulation in NRK-52E compared to RPTEC-TERT1 cells” value (34 µM) is reported as “significantly lower in NRK-52E cells”, the “Intracellular concentration after recovery compared to the 24 h time-point” value (NRK-52E) is reported as “declined during the 24 h off-dose recovery period” and the “Time course of intracellular concentration” value (NRK-52E, 34 µM) is reported as “continuous rise in the intracellular concentration”.

Reference: publication PMC9061999, “Application of the Adverse Outcome Pathway Concept to In Vitro Nephrotoxicity Assessment: Kidney Injury due to Receptor-Mediated Endocytosis and Lysosomal Overload as a Case Study” (Frontiers in Toxicology, 2022)
